According to US20050031661A1, “Attractants for moths” (priority 2003, published 2005):

What was measured:
[1] = test system: alfalfa looper moth; details: Landolt et al., 2001; cited from earlier work
[2] = test system: corn earworm moths; experiment: Double component Test 7, linalool, benzyl aldehyde, phenethyl alcohol combinations; type: in vivo, Helicoverpa zea; details: single and double component combinations dispensed from vials
Excerpt: (§1) Materials and Methods. The Universal Moth Trap (Great Lakes IPM, Vestaburg, Mich.) was used in all tests, with a 6 cm^2 piece of Vaportape® (Hercon Environmental Inc., Emigsville, Pa.) in each trap bucket to kill captured moths. The trap is an opaque white bucket with a yellow cone and green lid. Traps were hung from stakes in the weedy borders around irrigated fields in the vicinity of sweet corn and alfalfa, near Mattawa, Grant County, Wash. Traps were placed 12 meters apart in a north to south orientation, because of prevailing westerly winds.
(§2) A randomized complete block design was used, and treatments (trap lures) were randomized each time that traps were checked. Traps were checked twice per week, and insects were placed in pre-labeled plastic bags for transport to the laboratory where they were stored in a freezer until processed. Moths were sorted by sex and identified to species with the aid of a dissecting microscope.
(§3) Unless reported otherwise, polypropylene vials (8 ml) were used as dispensers for release of chemicals tested following the methods of Landolt et al., 2001, supra. Chemicals (5 ml) were pipetted onto cotton in the bottom of the vial. Holes made in the lids (3 mm diameter) permitted the escape of volatilized chemicals from the vials. Vials were suspended with wire near the bottom of the inside of the bucket of the trap. When more than one chemical was used to bait a trap, a separate vial was used for each chemical. Dispensers were replaced every 2 weeks when experiments lasted longer than two weeks.
Seven double component tests were conducted. For each two-component combinations, two vials were placed in the bucket of the trap; one vial containing phenylacetaldehyde and the other vial containing the second chemical (excepting the use of septa as dispensers for the third double component test that involved terpenes. Five replicate blocks, each including one of each of the different two-chemical combinations as well as phenylacetaldehyde alone, were set up and were maintained for two weeks.
Test 7. The combinations of linalool plus benzyl aldehyde, phenethyl alcohol plus benzaldehyde, and phenethyl alcohol plus linalool were compared to phenylacetaldehyde alone, linalool alone, benzyl aldehyde alone and phenethyl alcohol alone.
(§4) Trap catch data were subjected to an ANOVA and treatment means were separated using Tukey's test, following a significant F value in the ANOVA.

[3] = test system: corn earworm moths; experiment: Single component floral lures, 2000 field season (Example 3); type: in vivo, Helicoverpa zea; details: Universal Moth Traps baited with individual floral chemicals from polypropylene vials
Excerpt: as §1, §2, §3
During the 2000 field season, seven floral compounds were evaluated for attractiveness to corn earworm moths, testing them as lures in traps. These compounds were phenylacetaldehyde, benzyl alcohol, benzyl aldehyde, benzyl acetate, cis jasmone, linalool and phenethyl alcohol. A randomized complete block design was used, with 5 replicate blocks set up. Each block included an unbaited trap as a control.
as §4

[4] = test system: alfalfa looper moths; experiment: Double component blends, benzyl acetate plus, trap captures; type: in vivo, Autographa californica; details: Universal moth traps; benzyl acetate (BA) alone, PAA alone, or BA plus second chemical in separate vials
Excerpt: (§5) Materials and Methods. A multi-colored version of the Universal Moth Trap, or UniTrap® (AgriSense, sold by Great Lakes IPM, Vestaburg, Mich.), was used in all experiments. The trap is an opaque white bucket beneath a yellow cone and a green lid. A 2.5×2.5 cm piece of Vaportape® (Hercon Environmental, Emigsville, Pa.) was placed in each trap bucket as a killing agent. Traps were hung from stakes at a height of about one meter in uncultivated areas adjacent to fields of alfalfa or directly within alfalfa fields. Traps were placed 12 meters apart in a north to south orientation, because of prevailing westerly winds.
(§6) For all experiments, a randomized complete block design was used, and treatments were randomized each time traps were checked. Traps were checked twice per week, at which time all insects in the traps were placed in pre-labeled plastic bags for transport to the laboratory. Moths were identified and sorted by sex under a dissecting microscope.
Polypropylene vials (8 ml) were used as dispensers for release of chemicals tested, following the methods used in Landolt et al., 2001, supra. Chemicals (5 ml) were pipetted onto cotton in the bottom of the vial. Holes made in vial lids (3 mm diameter) permitted the escape of volatilized chemicals. Vials were suspended with wire near the bottom of the inside of the bucket of the UniTrap®. […]

[5] = test system: corn earworm moths; experiment: Double component Test 6, combinations with benzyl alcohol; type: in vivo, Helicoverpa zea; details: single and double component combinations dispensed from vials
Excerpt: as §1, §2
Unless reported otherwise, polypropylene vials (8 ml) were used as dispensers for release of chemicals tested following the methods of Landolt et al., 2001, supra. Chemicals (5 ml) were pipetted onto cotton in the bottom of the vial. Holes made in the lids (3 mm diameter) permitted the escape of volatilized chemicals from the vials. Vials were suspended with wire near the bottom of the inside of the bucket of the trap. […]

[6] = test system: cabbage looper moths; experiment: Single component floral lures, Universal moth trap captures (Example 2); type: in vivo, Trichoplusia ni; details: Universal moth traps baited with individual floral chemicals dispensed from polypropylene vials (5 ml, 3 mm hole)
Excerpt: as §5, §6
(§7) β-Pinene, (R)-(+)-α-pinene, (S)-(−)-limonene, β-myrcene, phenylacetaldehyde, methyl salicylate, and methyl-2-methoxybenzoate were purchased from Aldrich Chemical Co. (Milwaukee, Wis.). (R)-(+)-limonene was purchased from Acros Chemical Co. (Milwaukee, Wis.).
(§8) Polypropylene vials (8 ml) were used as dispensers for release of chemicals tested, following the methods used in Landolt et al., 2001, supra. Chemicals (5 ml) were pipetted onto cotton in the bottom of the vial. Holes made in vial lids (3 mm diameter) permitted the escape of volatilized chemicals. Vials were suspended with wire near the bottom of the inside of the bucket of the UniTrap®. When more than one chemical was used to bait a trap, a separate vial was used for each chemical. Dispensers were replaced after two weeks when experiments lasted longer than two weeks.
(§9) A comparison was made of moth captures in traps baited with seven different chemicals that are emitted by flowers. These chemicals were phenylacetaldehyde, (included as a positive control and standard for comparison), methyl salicylate, racemic limonene, methyl-2-methoxybenzoate, (R)-(+)-α-pinene, (S)-(−)-β-pinene, and β-myrcene. Five replicate blocks, each including these seven chemical treatments and an unbaited trap, were set up on 18 May 2001 and were maintained until 1 Jun. 2001. The study was conducted at an experimental farm about 20 km east of the town of Moxee, in Yakima County, Wash. The same study was conducted again 3-27 July 2001 near Mattawa, Grant County, Wash., in order to take advantage of cabbage looper populations that became apparent in mid summer.
as §4

[7] = test system: alfalfa looper moths; experiment: as above; type: in vivo, Autographa californica; details: Universal moth traps baited with individual floral chemicals dispensed from polypropylene vials (5 ml, 3 mm hole)
Excerpt: as §5, §6, §7, §8, §9, §4

[8] = test system: corn earworm moths; experiment: Single component floral lures, 2001 field season (Example 3); type: in vivo, Helicoverpa zea; details: Universal Moth Traps baited with individual floral chemicals from polypropylene vials
Excerpt: as §1, §2
β-Pinene, R-(+)-alpha-pinene, (S)-(−)-limonene, β-myrcene, phenylacetaldehyde, methyl salicylate, and methyl-2-methoxybenzoate were purchased from Aldrich Chemical Inc. (Milwaukee, Wis.). (R)-(+)-limonene was purchased from Acros Chemical Co. (Milwaukee, Wis.).
as §3
A second comparison of floral compounds was made in the 2001 field season, for attractiveness to corn earworm moths. These chemicals were phenylacetaldehyde, methyl salicylate, racemic limonene, methyl-2-methoxybenzoate, […], (S)-beta pinene, and β-myrcene. Five replicate blocks, each including these seven chemical treatments and an unbaited trap as a control, were set up on 3 Jul. 2001 and were maintained until 27 Jul. 2001.
as §4

[9] = test system: corn earworm moths; details: Cantelo and Jacobson, 1979b; cited from earlier work

SMILES	Attraction of alfalfa looper moths (capture in baited traps) [1]	Mean (±SE) numbers of corn earworm moths captured [2]	Mean (±SE) numbers of corn earworm moths captured [3]	Mean (±SE) numbers of alfalfa looper moths captured [4]	Mean (±SE) numbers of corn earworm moths captured [5]	Mean (±SE) numbers of cabbage looper moths captured [6]	Mean (±SE) numbers of alfalfa looper moths captured [7]	Mean (±SE) numbers of corn earworm moths captured [8]	Attraction of corn earworm moths [9]
O=Cc1ccccc1 [Benzyl aldehyde, benzyl aldehyde]	not attracted	0.05 ± 0.05a	0.05 ± 0.05a						
OCCc1ccccc1 [Phenethyl alcohol, phenethyl alcohol]	not attracted	0.05 ± 0.05a	0.00 ± 0.00						
CC(=O)OCc1ccccc1 [benzyl acetate]	attracted		0.00 ± 0.00	0.37 ± 0.12c					
OCc1ccccc1 [benzyl alcohol]	not attracted		0.15 ± 0.08a		0.10 ± 0.07a				
CC/C=C\CC1=C(C)CCC1=O [cis-jasmone]	not attracted		0.00 ± 0.00						
C=C(C)[C@H]1CC=C(C)CC1 [limonene]						0.0 ± 0.0a	0.0 ± 0.0a	0.05 ± 0.05a	
C=CC(C)(O)CCC=C(C)C (centres unmarked) [linalool]	not attracted	0.00 ± 0.00a	0.00 ± 0.00						
COC(=O)c1ccccc1O [methyl salicylate]						0.1 ± 0.1a	0.1 ± 0.0a	0.10 ± 0.05a	
COC(=O)c1ccccc1OC [methyl-2-methoxybenzoate]						0.6 ± 0.2b	0.1 ± 0.0a	3.90 ± 1.69b	
O=CCc1ccccc1 [phenylacetaldehyde]	attracted	1.75 ± 0.43c	0.45 ± 0.22b	0.83 ± 0.21e	2.25 ± 0.35c	7.2 ± 1.0c	4.5 ± 0.5c	2.35 ± 0.62b	attract
CC1=CC[C@@H]2C[C@H]1C2(C)C [α-pinene, (R)-(+)-α-pinene]						0.1 ± 0.0a	0.0 ± 0.0a	0.08 ± 0.04a	
C=CC(=C)CCC=C(C)C [β-myrcene]						0.1 ± 0.1a	0.4 ± 0.1b	0.20 ± 0.10a	
C=C1CC[C@H]2C[C@@H]1C2(C)C [β-pinene, (S)-(−)-β-pinene]						0.0 ± 0.0a	0.0 ± 0.0a	0.03 ± 0.03a	
